Measured values: patent publication US20150191446A1, “SELENO-COMPOUNDS AND THERAPEUTIC USES THEREOF” (THE HEART RESEARCH INSTITUTE LTD, priority 2010, published 2015)

Key:
[1] = test system: wounds in wildtype C57/BL6 mice; test: Circular incision wound model, topical treatment, wildtype mice; format: in vivo, mouse; settings: for pus formation in wound / wound healing (appearance): topical; for wound healing (appearance): FIG. 25, 26
Description: In the experimental testing according to the present invention, pairs of circular incision wounds on the backs of wildtype C57/BL6 and db−/db− mice (n=12 each) were treated daily with a seleno-compound according to the current invention or vehicle, topically for 10 days. Wound closure, vascular perfusion and tissue histology were assessed.

[2] = ThioGlo assay, recycling of selenoxides by thiols: glutathione; settings: GSH samples
Description: (§1) The purpose of these experiments was to determine whether thiols could reduce the selenoxides formed on oxidation of the seleno compounds. The ThioGlo assay was used to monitor the loss of thiol groups upon addition of selenoxides as this agent produces a fluorescent product in the presence of reduced thiols.
(§2) The ThioGlo reagent was prepared by diluting 30 μL of a stock solution (5 mg in 5.070 mL acetonitrile) in 2970 μL of 0.1 M pH 7.4 phosphate buffer. Preparation of the developing reagent was performed immediately prior to addition to standards or samples. Standard curves were prepared by addition of varying volumes, between 0 and 50 μL, of 10 μM GSH solution to wells in a 96-well plate. The volume in each well was made up to 50 μL with 0.1 M pH 7.4 phosphate buffer. 50 μL of ThioGlo•reagent was added to each standard, and incubated in the dark for 5 minutes. The fluorescence was measured using a PerSeptive Biosystems CytoFluor II fluorescence multi-well plate reader with λex=360 nm λem=530 nm. Standards using 10 μM Cys and 2 mg/mL BSA were produced in the same method.
(§3) Solutions of 8 μM SeMetO were produced by mixing 20 μM SeMet and 16 μM HOCl together, and incubating for 30 minutes. […] The fluorescence was measured using the PerSeptive Biosystems CytoFluor II fluorescence multi-well plate reader with λex=360 nm λem=530 nm. […]

[3] = ThioGlo assay, recycling of selenoxides by thiols: cysteine; settings: Cys samples
Description: as §1, §2, §3

[4] = target: bovine serum albumin (Bos taurus, UniProt P02769); test: ThioGlo assay, recycling of selenoxides by thiols: bovine serum albumin; settings: thiol group on bovine serum albumin
Description: as §1, §2, §3

[5] = test system: BSA; test: 3-chlorotyrosine formation by HOCl in BSA (LCMS); format: biochemical, bovine; settings: FIG. 5A
Description: (§4) Varying concentrations of Se-sugars (1.0 mM-0.05 mM) were added to solutions containing 0.1 mg·mL^−1 of protein (BSA or Plasma).
(§5) 150 μL of each sample (Se1HSA1—Control) were added to 50 μL of 3 mM HOCl. Samples, with a final volume of 200 μL, were placed in a glass vial (8×40 mm, 1 mL, No. 98212, Alltech) labeled by etching with a diamond tipped pen or engraver. Proteins (0.1 mg in 200 μL) were delipidated and precipitated by the addition of 25 μL 0.3% (w/v) deoxycholic acid and 50 μL of 50% (w/v) TCA, with incubation on ice for 5 min. The glass vials containing samples were placed in 1.5 mL centrifuge tubes for 2 minutes at 9000 rpm at 5° C. (Eppendorf 5415R centrifuge) to pellet protein. Protein pellets were washed once with 5% (w/v) TCA, and twice with ice cold acetone (stored in […]) with 2 min, 9000 rpm, spins between washes in each case to settle pellets. The samples were then transferred to PicoTag hydrolysis vessels before the addition of 150 μL of 6 M HCl and 50 μL of thioglycolic acid into the PicoTag vessel and placed under vacuum in the oven at 110° C. for 16-18 hours. The PicoTag vessels were removed from oven and allowed to cool before releasing vacuum. […]
(§6) L-Tyrosine, 3-chlorotyrosine and di-tyrosine were analysed by LC-MS in the positive ion mode with a Finigan LCQ Deca XP ion-trap instrument coupled to a Finigan surveyor HPLC system. […]

[6] = test system: human plasma; test: 3-chlorotyrosine formation by HOCl in human plasma (LCMS); format: biochemical; settings: FIG. 5B
Description: as §4, §5, §6

bovine serum albumin, sequence (P02769 25-607): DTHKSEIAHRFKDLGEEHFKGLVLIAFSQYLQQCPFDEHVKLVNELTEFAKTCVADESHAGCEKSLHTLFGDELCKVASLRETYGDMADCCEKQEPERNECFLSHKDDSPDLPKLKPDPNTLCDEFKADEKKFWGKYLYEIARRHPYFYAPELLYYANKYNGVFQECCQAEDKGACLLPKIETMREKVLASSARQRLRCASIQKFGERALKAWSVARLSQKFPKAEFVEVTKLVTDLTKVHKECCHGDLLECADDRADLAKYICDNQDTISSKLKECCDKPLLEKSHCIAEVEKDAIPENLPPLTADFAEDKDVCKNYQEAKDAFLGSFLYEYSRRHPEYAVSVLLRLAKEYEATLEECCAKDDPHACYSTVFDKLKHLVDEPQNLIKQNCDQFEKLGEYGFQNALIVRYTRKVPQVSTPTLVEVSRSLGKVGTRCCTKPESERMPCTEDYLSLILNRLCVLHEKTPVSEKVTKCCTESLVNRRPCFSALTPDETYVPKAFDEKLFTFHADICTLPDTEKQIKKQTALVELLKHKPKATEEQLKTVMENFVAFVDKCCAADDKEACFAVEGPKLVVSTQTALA

Compound | wound healing (appearance) ([1]; same dose) | amount of thiols after selenoxide addition [2] | amount of thiols after selenoxide addition [3] | reduction of selenoxide by thiol group [4] | further results
O[C@@H]1C[Se]C[C@H]1O (racemic) [DHSred, DL-trans-3,4,-Dihydroxy-L-selenolane] | inferior healing |  |  |  | inflammatory response during wound healing ([1]; FIG. 25): resulted in an inflammatory response; pus formation in wound ([1]; same dose, FIG. 25): development of pus; wound healing (appearance) ([1]; same dose, listed as DL-trans-3,4,-Dihydroxy-L-selenolane): reduced wound healing; pus formation in wound ([1]; same dose, FIG. 25, listed as DL-trans-3,4,-Dihydroxy-L-selenolane): observable pus formation; scar tissue formed during wound healing ([1]; wildtype mice, same dose, FIG. 26): pronounced scar tissue build up
C[Se](=O)CC[C@H](N)C(=O)O (stereo partly drawn) [SeMetO, selenomethionine oxide] |  | dose dependent decreases | dose dependent decreases | less marked | 
O=[Se]1C[C@@H](O)[C@@H](O)[C@@H]1[C@H](O)CO (stereo partly drawn) [SeTalO] |  | dose dependent decreases | dose dependent decreases | less marked | 
OCC1[Se]CC(O)C(O)[C@@H]1O (stereo partly drawn) [compound 4, 1,5-Anhydro-5-seleno-L-gulitol] |  |  |  |  | 3-chloro-tyrosine formation by HOCl [5]: effectively preventing; 3-chloro-tyrosine formation by HOCl [6]: effectively preventing
OC[C@@H](O)[C@@H]1[Se]C[C@@H](O)[C@H]1O [compound 38, 1,4.-Anhydro-4-seleno-D-talitol] | improved wound closure and healing |  |  |  | 
